Assay results published in PMC5962642, “Dynamic imaging of adaptive stress response pathway activation for prediction of drug induced liver injury” (Archives of Toxicology, 2018).
“Also recorded” adds a separate entry of the source.

What was measured:
[1] = two classes made from the FDA DILI-concern labeling
[2] = test system: ICAM1-GFP (NF-κB-mediated inflammatory signaling); test: HepG2 ICAM1-GFP BAC reporter, TNFα-induced, live cell confocal imaging; format: cell-based, Human; settings: HepG2 BAC-GFP, 8 h compound then TNFα 10 ng/mL, 24 h live imaging, 1-100 C-max
Description: Human hepatoma HepG2 cells were acquired from ATCC (clone HB8065). HepG2 Srxn1, DDIT3 (CHOP), CDKN1A (p21) and ICAM1 BAC GFP reporter cell lines were previously established and characterized (Wink et al. [2017]). […] The cell lines were used between passage 5 and 25. For live cell imaging, the cells were seeded in Greiner black μ-clear 384 wells plates, at 8000 cells per well. […] All imaging was similar as previously described^5. […] Directly after TNFα treatment the live cell imaging was started. Quantitative image analysis was performed with CellProfiler version 2.1.1 ([…] et al. [2011]) with an in house developed CellProfiler module implementing the watershed masked algorithm for segmentation (Yan and Verbeek [2012]; Wink et al. [2017]). Image analysis results were stored as HDF5 files. Data analysis, quality control and graphics were performed using the in house developed R package h5CellProfiler (manuscript in preparation). For each reporter hourly intensity levels of the GFP signal, the nuclear Hoechst33342 intensity levels and at 24 h the PI staining were measured at the single cell level. In addition, cell numbers, nuclei size and cell motility were measured. GFP intensity cell population means were calculated. In addition, for each plate the cell population mean GFP intensity of the DMSO treated cells was calculated to determine background control values. Per plate, the single cells that had values above the 2X mean, 3X mean were counted resulting in GFP positive fraction measures. For ICAM1, the background control values consisted of DMSO conditions treated with TNFα, and the single cells with values above, as well as below background values were counted. […] Linear regression was applied with respect to time to quantify treatment effects on a plate-to-plate basis to quantify cell speed, nuclear size, Hoechst nuclear intensity and cell numbers. […] The maximum values over time of the scaled intensity levels and positive GFP fractions were selected for the concentration response curves. These values were fit to a four parameter log-logistic model using the drc package (Ritz et al. [2015]). BMC values were calculated as the concentration at which + 0.25 (and - 0.25 for ICAM1) absolute increase from the initial response values occurred (Fig. 5a).

[3] = test system: Srxn1-GFP (oxidative stress); test: HepG2 Srxn1-GFP BAC reporter, live cell confocal imaging (oxidative stress); format: cell-based, Human; settings: for activation of Srxn1-GFP and/or CHOP-GFP (cluster 3): cluster description, reporter not resolved per drug (Srxn1-GFP and/or CHOP-GFP); for Srxn1-GFP reporter response: HepG2 BAC-GFP, 24 h live imaging, 1-100 C-max; for Srxn1-GFP response at the intensity feature level (cell population): GFP intensity over the single cell population
Description: Human hepatoma HepG2 cells were acquired from ATCC (clone HB8065). HepG2 Srxn1, DDIT3 (CHOP), CDKN1A (p21) and ICAM1 BAC GFP reporter cell lines were previously established and characterized (Wink et al. [2017]). HepG2 BAC GFP reporters were maintained and exposed to drugs in DMEM high glucose supplemented with 10% (v/v) FBS, 25 U/mL penicillin and 25 µg/mL streptomycin. The cell lines were used between passage 5 and 25. For live cell imaging, the cells were seeded in Greiner black µ-clear 384 wells plates, at 8000 cells per well.
Accumulation of GFP levels, propodium iodide (PI) and Hoechst staining was monitored using a Nikon TiE2000 confocal laser microscope (lasers 540, 488 and 408 nm), equipped with an automated stage and perfect focus system at 37 °C with humidified atmosphere and 5% CO2/air mixture. All imaging was similar as previously described^5. Each 384-well plate contained one reporter cell line, which was exposed to all the compounds used in the screen at one certain concentration (1, 5, 10, 50 or 100 Cmax); for each concentration at least two replicates were imaged per reporter cell line. For the ICAM1-GFP reporter experiments, cells were first exposed for 8 h to compound only; next, TNFα was added to all wells, up to a final concentration of 10 ng/mL. Directly after TNFα treatment the live cell imaging was started.
Quantitative image analysis was performed with CellProfiler version 2.1.1 (Kamentsky et al. [2011]) with an in house developed CellProfiler module implementing the watershed masked algorithm for segmentation (Yan and Verbeek [2012]; Wink et al. [2017]). Image analysis results were stored as HDF5 files. Data analysis, quality control and graphics were performed using the in house developed R package h5CellProfiler (manuscript in preparation). For each reporter hourly intensity levels of the GFP signal, the nuclear Hoechst33342 intensity levels and at 24 h the PI staining were measured at the single cell level. In addition, cell numbers, nuclei size and cell motility were measured.
GFP intensity cell population means were calculated. In addition, for each plate the cell population mean GFP intensity of the DMSO treated cells was calculated to determine background control values. Per plate, the single cells that had values above the 2X mean, 3X mean were counted resulting in GFP positive fraction measures. For ICAM1, the background control values consisted of DMSO conditions treated with TNFα, and the single cells with values above, as well as below background values were counted. Due to the non-symmetric distribution of ICAM1 cell population GFP intensities, the interquartile range (IQR) was used to count the number of cells 1.5, 2 and 3 times above and below the TNFα IQR control values (Supplemental Fig. 1).
The maximum values over time of the scaled intensity levels and positive GFP fractions were selected for the concentration response curves. These values were fit to a four parameter log-logistic model using the drc package (Ritz et al. [2015]). BMC values were calculated as the concentration at which + 0.25 (and − 0.25 for ICAM1) absolute increase from the initial response values occurred (Fig. 5a).

[4] = C-max obtained from FDA or literature; ref per compound (FDA, Dailymed, Xu, O’Brien, Khetani, Regenthal, Gustafsson, Dawson, Ogutu, Patel, Schmidt, Ravic, Keisu, Hu, Wagner); cited from earlier work
[5] = test system: CHOP-GFP (ER stress/UPR response); test: HepG2 CHOP-GFP BAC reporter, live cell confocal imaging (ER stress/UPR); format: cell-based, Human; settings: for CHOP-GFP reporter response: HepG2 BAC-GFP, 24 h live imaging, 1-100 C-max
[6] = ref Chen et al. [2016], cited from earlier work; for DILI con. (DILI-concern labeling): FDA DILI labeling; for Hepa. (hepatotoxicity class): FDA labeling in eight classes of hepatotoxicity
[7] = ref livertox.nih.gov database; cited from earlier work
[8] = order of responses in 24 h, 100× C-max printed for nimesulide, rifampicin, oxytetracycline

| Structure (SMILES) | modulation of TNFα-induced ICAM1-GFP response [2] | Cmax [4] | DILI con. (DILI-concern labeling) [6] | Hepa. (hepatotoxicity class) [6] | Srxn1-GFP reporter response [3] | Metab (metabolic potential) [7] | also measured |
| --- | --- | --- | --- | --- | --- | --- | --- |
| O=C(O)Cc1ccccc1Nc1c(Cl)cccc1Cl [Diclofenac] | inhibiting; also recorded: mild ICAM1-GFP suppression | 10.1 µM |  |  |  |  | Severity class [1]: Sev.; activation of Srxn1-GFP and/or CHOP-GFP (cluster 3) [3]: activation of Srxn1-GFP and/or CHOP-GFP |
| C/C=C(/C)C(=O)O[C@H]1C(C)=C2[C@H]([C@@H]1OC(=O)CCCCCCC)[C@@](C)(OC(C)=O)C[C@H](OC(=O)CCC)[C@@]1(O)[C@H]2OC(=O)[C@@]1(C)O [Thapsigargin] |  |  |  |  |  |  | CHOP-GFP reporter response [5]: strong inducers |
| CC1=C(CC(=O)O)c2cc(F)ccc2/C1=C\c1ccc([S+](C)[O-])cc1 (stereo not drawn) [Sulindac] |  | 32 µM | Most-DC | 8 | activation | YES |  |
| CN(C)CCCN1c2ccccc2Sc2ccc(Cl)cc21 [Chlorpromazine] |  | 0.94 µM | Less-DC | 2 |  | YES | Srxn1-GFP response at the intensity feature level (cell population) [3]: would not have been defined as positive |
| Cn1cnc([N+](=O)[O-])c1Sc1ncnc2nc[nH]c12 [Azathioprme, azathioprine] | enhancing; also recorded: mild Srxn1-GFP and ICAM1-GFP activation | 0.34 µM | Most-DC | 5 | mild Srxn1-GFP and ICAM1-GFP activation | YES |  |
| CCOC(=O)/C=C\C(=O)OCC [Diethylmaleate] |  |  |  |  | strong inducers |  |  |
| COc1cc2c(c(OC)c1OC)-c1ccc(OC)c(=O)cc1[C@@H](NC(C)=O)CC2 [Colchicine] | mild Srxn1-GFP and ICAM1-GFP activation | 0.016 µM | Amb.-DC | 6 | mild Srxn1-GFP and ICAM1-GFP activation | YES | Severity class [1]: Non-sev. |
| Cc1ccc(C(=O)c2cc(O)c(O)c([N+](=O)[O-])c2)cc1 [Tolcapone] |  | 22 µM | Most-DC | 8 |  | YES | Severity class [1]: Sev. |
| CC(=O)N1CCN(c2ccc(OCC3COC(Cn4ccnc4)(c4ccc(Cl)cc4Cl)O3)cc2)CC1 (stereo not drawn) [Ketoconazole] |  | 6.59 µM | Most-DC | 8 |  |  | Srxn1-GFP response at the intensity feature level (cell population) [3]: no Srxn1-response; earliest concentration with Srxn1 response, %GFP positive marker ([3]; multiples of C-max): 50 C-max |
| CN(C)[C@@H]1C(O)=C(C(N)=O)C(=O)[C@@]2(O)C(O)=C3C(=O)c4c(O)cccc4[C@@](C)(O)[C@H]3[C@H](O)[C@@H]12 [Oxytetracycline] |  | 3.26 µM | Amb.-DC | 2 |  |  | CHOP-GFP response, time dynamics relative to Srxn1-GFP [5, 8]: initial CHOP-GFP response; Srxn1-GFP response, time dynamics relative to CHOP-GFP [3, 8]: delayed Srxn1-GFP response |
| O=C1CN(/N=C/c2ccc(-c3ccc([N+](=O)[O-])cc3)o2)C(O)=N1 [Dantrolene] | mild ICAM1-GFP suppression | 7.9 µM | Most-DC | 8 |  | YES | activation of Srxn1-GFP and/or CHOP-GFP (cluster 3) [3]: activation of Srxn1-GFP and/or CHOP-GFP |
| CCN(CC)C(=O)/C(C#N)=C/c1cc(O)c(O)c([N+](=O)[O-])c1 [Entacapone] |  | 3.93 µM | Less-DC | 1 |  | YES | Severity class [1]: Non-sev. |
| CN1CCN(C2=Nc3cc(Cl)ccc3Nc3ccccc32)CC1 [Clozapine] | strong ICAM1-GFP suppression | 2.44 µM |  |  |  | YES | CHOP-GFP reporter response [5]: CHOP-GFP activation |
| Nc1c(CC(=O)O)cccc1C(=O)c1ccc(Br)cc1 [Bromfenac] | mild ICAM1-GFP suppression | 18 µM | Most-DC | 8 |  |  | activation of Srxn1-GFP and/or CHOP-GFP (cluster 3) [3]: activation of Srxn1-GFP and/or CHOP-GFP |
| CC(=O)Nc1ccc(O)cc1 [Acetaminophen] |  |  |  |  | activation | YES |  |
| CCc1oc2ccccc2c1C(=O)c1cc(Br)c(O)c(Br)c1 [Benzbromarone] | mild ICAM1-GFP suppression | 4.34 µM | Most-DC | 8 |  | YES | activation of Srxn1-GFP and/or CHOP-GFP (cluster 3) [3]: activation of Srxn1-GFP and/or CHOP-GFP |
